Values of other authors as cited in US20080221048A1, “Lyophilized azithromycin formulation” (APP Pharmaceuticals, LLC., priority 2004, published 2008).
Where two headings read alike, the source gives them in different places.

Conditions: for time diluted azithromycin for injection is stable: diluted to 1.0-2.0 mg/mL

CC[C@H]1OC(=O)[C@H](C)[C@@H](O[C@H]2C[C@@](C)(OC)[C@@H](O)[C@H](C)O2)[C@H](C)[C@@H](OC2O[C@H](C)C[C@H](N(C)C)[C@H]2O)C(C)(O)C[C@@H](C)CN(C)[C@H](C)[C@@H](O)[C@]1(C)O (stereo in doubt) [azithromycin, (2R,3S,4R,5R,8R,10R,11R,12S,13S,14R)-13-[(2,6-dideoxy-3-C-methyl-3-O-methyl-α-L-ribo-hexo-pyranosyl)oxy]-2-ethyl-3,4,10-trihydroxy-3,5,6,8,10,12,14-heptamethyl-11-[[3,4,6-trideoxy-3-(dimethylamino)-β-D-xylo-hexopyranosyl]oxy]-1-oxa-6-azacyclopentadecan-15-one]
time diluted azithromycin for injection is stable (at or below room temperature (30° C. or 86° F.)): 24 h
time diluted azithromycin for injection is stable (stored under refrigeration (5° C. or 41° F.)): 170 h
time reconstituted azithromycin solution is stable (reconstituted solution (about 100 mg/mL), stored below 30° C. or 86° F.): 24 h
